Biological target: T1, PriA_Blon (Bifidobacterium longum, UniProt Q8G4S5)
T1 sequence (Q8G4S5 1-241): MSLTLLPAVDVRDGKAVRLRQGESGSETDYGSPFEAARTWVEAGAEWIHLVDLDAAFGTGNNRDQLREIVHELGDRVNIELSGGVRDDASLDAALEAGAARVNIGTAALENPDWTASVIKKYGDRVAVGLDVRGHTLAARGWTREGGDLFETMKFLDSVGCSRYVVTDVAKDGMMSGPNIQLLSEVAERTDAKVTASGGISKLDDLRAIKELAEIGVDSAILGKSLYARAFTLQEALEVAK
Test: steady-state kinetics, PRA isomerase
Format: biochemical
Conditions: read-out: In vitro activity^a / PRA isomerase (TrpF) / K M μM

- Km: 6.1 ± 0.1 µM
Structure (SMILES): O=C(O)c1ccccc1N[C@@H]1O[C@H](COP(=O)(O)O)[C@@H](O)[C@H]1O [PRA, N’-(5′-phosphoribosyl) anthranilate]
